Experimental findings from patent US10040783B2 (Emory University, priority 2011, dated 2018) are described below.

Where two headings read alike, the source gives them in different places. Where only a bound is given, the exact number is not on record here.

The subject of series [1] is C6G cells. Kind of series: CellTiter-Glo luminescent cell viability assay (cytotoxicity).
In series [2] the target is EP4 receptor (Homo sapiens, UniProt P35408). The series is described as follows: Schild regression analysis for EP4 receptor. It is filed as cell-based. Conditions: for Kb: read-out: KB (μM) EP4, from Schild regression analysis. An excerpt: (§1) Information on the modality of antagonism can be obtained by performing Schild regression analysis characterized by: log (dr−1)=log XB−log KB. In the equation, dose ratio (dr)=fold shift in EC50, XB=[antagonist], KB=equilibrium dissociation constant for the antagonist-receptor complex. […] Thus, a lower KB value indicates a higher inhibitory potency.

Series [3] concerns the target EP2 receptor (Homo sapiens, UniProt P43116). The series is described as follows: Schild regression of PGE2-induced EP2 activation in C6G-EP2 cells. Type of series: cell-based. Set-up: expressed in transfected cells; host or cells: C6G-EP2 cells. As to the method:
as §1
To perform the Schild regression, C6G-EP2 cells were incubated first with vehicle, 0.01, 0.1 or 1 μM of test compound for 5 minutes, then with increasing concentrations of PGE2 to activate the EP2 receptor.

Series [4] can be described thus: in vitro. Conditions: rat.
The mark [5] stands for this setting: C6G-EP2 cells, PGE2 as agonist, read-out: KB (nM) EP2, from Schild regression analysis.
The mark [6] stands for this setting: additional compounds tables, read-out: EP2 KB.

Sequence of EP2 receptor (P43116 whole entry): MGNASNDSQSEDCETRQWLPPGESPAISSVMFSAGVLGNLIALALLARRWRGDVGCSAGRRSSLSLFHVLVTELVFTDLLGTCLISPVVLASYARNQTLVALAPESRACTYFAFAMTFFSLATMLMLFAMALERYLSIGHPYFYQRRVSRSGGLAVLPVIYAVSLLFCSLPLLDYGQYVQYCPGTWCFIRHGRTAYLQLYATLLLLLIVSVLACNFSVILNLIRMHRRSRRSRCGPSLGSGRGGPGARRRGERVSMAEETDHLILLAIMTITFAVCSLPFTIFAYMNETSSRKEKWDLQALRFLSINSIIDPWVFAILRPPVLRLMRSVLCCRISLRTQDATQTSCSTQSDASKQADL
Sequence of EP4 receptor (P35408 whole entry): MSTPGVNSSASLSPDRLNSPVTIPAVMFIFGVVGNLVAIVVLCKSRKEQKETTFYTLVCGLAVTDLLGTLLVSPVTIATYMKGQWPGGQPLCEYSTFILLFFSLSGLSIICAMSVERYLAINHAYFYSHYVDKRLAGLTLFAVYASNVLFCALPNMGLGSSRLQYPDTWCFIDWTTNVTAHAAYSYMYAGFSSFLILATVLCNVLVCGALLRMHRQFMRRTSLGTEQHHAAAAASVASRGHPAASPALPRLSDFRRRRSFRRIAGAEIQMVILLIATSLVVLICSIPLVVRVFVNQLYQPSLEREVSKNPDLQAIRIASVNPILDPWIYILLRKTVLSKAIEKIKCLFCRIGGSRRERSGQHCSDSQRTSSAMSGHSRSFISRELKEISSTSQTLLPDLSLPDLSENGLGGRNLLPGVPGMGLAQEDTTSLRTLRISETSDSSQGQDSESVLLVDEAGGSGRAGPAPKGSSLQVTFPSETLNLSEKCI

`COc1ccc(/C=C/C(=O)NCCn2c(C(F)(F)F)cc3ccccc32)cc1OC` [1i]: the “Therapeutic index (in vitro), CC50/KB for EP2” value (from here on “Therapeutic index (in vitro)”) in series [1] is 3,550. Further, the CC50 in series [1] (read-out: CC50, half maximal cytotoxic concentration, C6G cells after 48 h incubation) was found to be 209 µM. Moreover, in series [2], the “Selective index, KB EP4/KB EP2” value was determined as 381 and the Kb came to 22.4 µM. Further, the Kb in series [3] (setting [5]) came to 58.8 nM.

For `COc1cc(/C=C/C(=O)NCCc2c(C)oc3ccccc23)cc(OC)c1OC` [TG7-122], in series [3] (setting [6]), the Kb was 217 nM.

Compound `COc1cc(OC)c(C=CC(=O)NCCn2c(C)cc3ccccc32)cc1Br` [1y, 3-(5-bromo-2,4-dimethoxyphenyl)-N-(2-(2-methyl-1H-indol-1-yl)ethyl)acrylamide] returned a CC50 at 48 h in series [4] (C6G cells) of 1240 µM. In series [1], the “Therapeutic index (in vitro)” value is listed as 155,000. Further, in series [2], the “Selective index, KB EP4/KB EP2” value is recorded as 859 and the Kb was 6.9 µM. Also, in series [3] (setting [5]), the Kb is 8 nM.

`Cc1nc2ccccc2n1CCNC(=O)C=Cc1ccc2c(c1)OCO2` [1c, 3-(benzo[d][1,3]dioxol-5-yl)-N-(2-(2-methyl-1H-benzo[d]imidazol-1-yl)ethyl)acrylamide] had a CC50 at 48 h in series [4] (C6G cells) of 325 µM. Besides, the “Therapeutic index (in vitro)” value in series [1] came to 219. Also, in series [2], the “Selective index, KB EP4/KB EP2” value was 10 and the Kb worked out at 15.3 µM. Also, the Kb in series [3] (setting [5]) came to 1490 nM.

On to `Cc1cc2ccccc2n1CCNC(=O)C=Cc1ccc(F)c(F)c1` [1r, 3-(3,4-difluorophenyl)-N-(2-(2-methyl-1H-indol-1-yl)ethyl)acrylamide], for which, in series [4] (C6G cells), the CC50 at 48 h is 89 µM. In addition, the “Therapeutic index (in vitro)” value in series [1] is reported as 23,400. Further, in series [2], the “Selective index, KB EP4/KB EP2” value is listed as 2,800 and the Kb is 10.6 µM. In addition, the Kb in series [3] (setting [5]) amounted to 3.8 nM.

In the case of `Cc1cc2ccccc2n1CCNC(=O)c1ccc(N)cc1` [TG7-143], the Kb in series [3] (setting [6]) was determined as 207 nM.

For the compound `Cc1cc(/C=C/C(=O)NCCn2c(C(F)(F)F)cc3ccccc32)cc(C)c1F` [TG7-13], in series [3] (setting [6]), the Kb was 288 nM.

As for `COc1cc(C(=O)NCCn2c(C)cc3ccccc32)cc(OC)c1OC` [TG7-112-1], the Kb in series [3] (setting [6]) is > 1000 nM.

For the compound `Cc1cc2ccccc2n1CCNC(=O)c1cnc2ccc(F)cc2c1O` [TG7-148], the Kb in series [3] (setting [6]) is 174 nM.

Turning to `Cc1cc2ccccc2n1CCNC(=O)c1nc2cc(F)ccc2[nH]1` [TG7-118], the Kb in series [3] (setting [6]) stood at 128 nM.

`COc1cccc2c1C(=O)c1c(O)c3c(c(O)c1C2=O)C[C@@](O)(C(=O)CO)C[C@@H]3O[C@H]1C[C@H](N)[C@H](O)[C@H](C)O1` [doxorubicin, reference compound]: the CC50 at 48 h in series [4] was found to be 0.2 µM.

Regarding `CC(=O)Nc1ccc(C(=O)NCCc2c(C)[nH]c3ccccc23)cc1` [TG7-146], the Kb in series [3] (setting [6]) turned out to be 138 nM.

Consider `Cc1cc2ccccc2n1CCNC(=O)C1CCC(=O)N1` (stereo not drawn) [TG7-120], for which the Kb in series [3] (setting [6]) was > 1000 nM.

As to `Cc1cc2ccccc2n1CCNC(=O)c1c[nH]c2c(F)cccc2c1=O` [TG7-131], in series [3] (setting [6]), the Kb was 630 nM.

`Cc1cc2ccccc2n1CCNC(=O)c1ccc(N2CCN(C)CC2)c(F)c1` [TG7-141, 3-fluoro-N-(2-(2-methyl-1H-indol-1-yl)ethyl)-4-(4-methylpiperazin-1-yl)benzamide]: in series [3] (setting [6]), the Kb is 51.1 nM.

As to `Cc1cc2ccccc2n1CCNC(=O)c1ccc(N(C)C)cc1` [TG7-142, 4-(dimethylamino)-N-(2-(2-methyl-1H-indol-1-yl)ethyl)benzamide], in series [3] (setting [6]), the Kb worked out at 10.4 nM.

On to `Cc1cc2ccccc2n1CCNC(=O)c1ccc(C#N)cc1` [TG7-147], for which the Kb in series [3] (setting [6]) amounted to 139 nM.

In turn, `CCOc1c(Br)cc(CCC(=O)NCCn2c(C)cc3ccccc32)cc1OC` [1v] showed a Schild plot slope in series [3] (C6G-EP2 cells, PGE2) of 1.2. The Kb in series [3] (setting [5]) came out at 1.8 nM. Besides, the “Modality of antagonism on EP2 receptor” value in series [3] (Schild plots) is “competitive antagonism”.

Regarding `Cc1cc2ccccc2n1CCNC(=O)c1ccc(C(N)=O)cc1` [TG7-140], in series [3] (setting [6]), the Kb amounted to 150 nM.

With `COc1cc(CCC(=O)NCCn2c(C)cc3ccccc32)cc(OC)c1OC` [1l, N-(2-(2-methyl-1H-indol-1-yl)ethyl)-3-(3,4,5-trimethoxyphenyl)propanamide], the CC50 at 48 h in series [4] (C6G cells) came to 397 µM. Also, the Kb in series [2] was determined as 18.1 µM.
